These results are taken from patent US11266644B2, “Pharmaceutical composition for preventing and treating diabetic nephropaphy including adenosine derivative” (FUTURE MEDICINE CO., LTD., priority 2017, dated 2022).

In test [1] the test system is db/db diabetic mice. Briefly: Type 2 diabetic renal damage, db/db mice, dose-dependency (Experimental Example 1). In kind it is in vivo. To be noted: db/db mice, 1.5, 5 and 10 mg/kg. On the procedure: The following animal experiments were performed to examine the inhibitory effect of the adenosine derivatives of the present invention on renal damage in the type 2 diabetes model.
After 12 weeks of the administration, kidneys of the solvent control group and the test substance administration group were extracted to observe the histological changes of the glomeruli and the levels of urinary albumin and LPO (lipid peroxide) or the amount of mRNA expression for nephrin, NGAL, TGF-β, collagen IV, fibronectin, MCP-1 and ICAM-1 was set as an index for renal damage and the protective effect for kidney was measured. Db/m mice in which diabetes were not induced, were added as a control group and only a solvent was administered to observe and measure the above items.
Of these indices, urinary albumin level means proteinuria, nephrin reduction means podocyte injury, NGAL increase means tubular injury, TGF-β increase means fibrosis, inflammatory cytokine (MCP-1, ICAM-1) increase means Inflammatory response and LPO values indicate oxidative stress.
The morphological analysis of glomeruli was performed by PAS (Periodic Acid Schiff) staining of kidney tissues followed by random selection of each 50, quantification by an image analyzer and statistics, and urinary albumin and LPO were analyzed by electrophoresis and ELISA (Enzyme-Linked ImmunoSorbent Assay) and mRNA expression was analyzed by real time PCR.
In FIG. 2 and FIG. 3, db/m represents normal mice, db/db represents diabetic mice administered with only solvent (0.25% CMC) and db/db+LJ2698 (1.5 mg/kg), db/db+LJ2698 (5 mg/kg) and db/db+LJ2698 (10 mg/kg) represent diabetic mice in which the compound of Chemical Formula B is administered at 1.5, 5 and 10 mg/kg, respectively, for 12 weeks daily.

In test [2] the test system is mice-derived tubular epithelial cells. The experiment in a line: Inflammation and fibrosis response in cultured tubular epithelial cells (Experimental Example 4). In kind it is cell-based. To be noted: induced with high glucose, angiotensin II and free fatty acids (FIG. 20). Here is the method: (§1) In order to examine the anti-inflammatory and anti-fibrotic effects of the adenosine derivatives of the present invention on cultured cells, the following in vitro experiments were performed.

In test [3] the test system is mice-derived glomerular podocyte. Briefly: Inflammation and fibrosis response in cultured glomerular podocytes (Experimental Example 4). The format is cell-based. To be noted: induced with high glucose, angiotensin II and free fatty acids (FIG. 20). On the procedure: as §1
Test [4] deals with mice in which type 1 diabetes was induced (STZ). Briefly: Type 1 diabetic renal damage, streptozotocin-induced diabetic mice (Experimental Example 3). In kind it is in vivo. To be noted: daily 12 weeks, Formula B 10 mg/kg. On the procedure:
The following animal experiments were performed to examine the inhibitory effect on the kidney injury by administering the adenosine derivative of the present invention to an animal model of type 1 diabetes.
After streptozotocin (STZ) was administered to normal mice for 5 days to induce type 1 diabetes, the mice have been classified into, a group in which 10 mg/kg compound of Chemical Formula B was administered daily, a group in which 1.5 mg/kg of LC158809, a type of ARB, was administered daily, and a group in which 10 mg/kg compound of Chemical Formula B and 1.5 mg/kg of LC158809 were co-administered daily, then all groups were given total of 12 weeks administration.
Kidney function and histologic changes of the kidney and the like were examined for normal mice to which streptozotocin was not administered, diabetic mice to which the only solvent was administered after 12 weeks of streptozotocin administration and diabetic mice to which test substance was administered after 12 weeks of streptozotocin administration.
FIG. 15 to FIG. 17 are graphs showing the results of measuring the levels of urinary albumin, nephrin and 8-isoprostan according to the above-mentioned experiment. Urine albumin, nephrin and 8-isoprostanone levels were measured as indicators of proteinuria, glomerular podocyte damage and oxidative stress, respectively.
In FIG. 15 to FIG. 19, Control and STZ represent normal mice and mice in which type 1 diabetes was induced, and STZ+ARB, STZ+LJ2698 and STZ+ARB+LJ2698 represent diabetic mice in which […] and the compound of Chemical Formula B+LC158809 (co-administration) were administered for 12 weeks, respectively.

For test [5], the system named is db/db diabetic mice. The experiment in a line: Type 2 diabetic renal damage, db/db mice, comparison with Losartan (Experimental Example 2). In kind it is in vivo. To be noted: oral, daily 12 weeks, Formula B 10 mg/kg; for glomerular filtration rate decrease / glomerular hypertrophy / proteinuria / tubular injury: Losartan 1.5 mg/kg (FIG. 4-6); for renal fibrosis: Losartan 1.5 mg/kg (FIG. 7, 8); for inflammation response: Losartan 1.5 mg/kg (FIG. 9, 10); for oxidative stress: Losartan 1.5 mg/kg (FIG. 11, 12); for lipid accumulation: Losartan 1.5 mg/kg (FIG. 13, 14). On the procedure:
In order to compare the therapeutic efficacy between the adenosine derivative of the present invention and Losartan, which is used for alleviating the symptoms of diabetic kidney disease, the following animal experiments were performed.
The compound of Chemical Formula B and rosartan were oral administered at a dose of 10 mg/kg and 1.5 mg/kg to 8-week-old normal db/m mice in which diabetes were not induced and 8-week-old db/db diaetic mice in which diabetes were induced, respectively for 12 weeks daily. The kidneys of the solvent control group and the drug administration group were extracted to observe the histological changes of the glomeruli and the changes in the indicators for renal damage such as proteinuria, glomerular filtration rate reduction, tubular injury, glomerular hypertrophy, renal fibrosis, inflammatory response, oxidative stress and lipid accumulation were compared.
The morphological analysis of kidney including glomeruli was performed by PAS staining of kidney tissues followed by random selection of each 50, quantification by an image analyzer and statistics, and urinary albumin and LPO were analyzed by electrophoresis and ELISA (Enzyme-Linked ImmunoSorbent Assay) and mRNA expression was analyzed by real time PCR.
Glomerular filtration rate was calculated by measuring blood and urine creatinine using the Jaffe method and changes in kidney protein were measured by western blot, ELISA and immunohistochemistry.
In FIG. 4 to FIG. 14, db/m and db/db represent the mice to which the solvent (0.25% CMC) used in administering the compound of Chemical Formula B was administered, respectively, and db/m+LJ2698 and db/db+LJ2698 represent normal mice and diabetic mice to which the compound of Chemical Formula B is administered for 12 weeks, respectively. db/db+Losartan represents diabetic mice to which Losartan was administered for 12 weeks.

Setting [6] is: LC158809 1.5 mg/kg (FIG. 18, 19).

`O[C@@H]1[C@H](O)CS[C@H]1n1cnc2c(NCc3cccc(Cl)c3)nc(Cl)nc21` [compound of Chemical Formula B, (2R,3R,4S)-2-(2-chloro-6-(3-chlorobenzylamino)-9H-purin-9-yl)tetrahydrothiophene-3,4-diol]: in the test with db/db diabetic mice [1] (12 weeks (FIG. 1, 2)), the “vasodilation (glomerular mesangium)” value was “significantly inhibited”. The “urinary albumin levels (proteinuria)” value in the test on db/db diabetic mice [1] (12 weeks (FIG. 3)) is listed as “inhibited dependently on dose”. In the test on db/db diabetic mice [1] (12 weeks, PAS staining (FIG. 1, 2)), the glomerular hypertrophy result is given as “significantly inhibited”. For the same molecule, in the test on db/db diabetic mice [1] (12 weeks, mRNA (FIG. 3)), the “NGAL (tubular injury indicator)” value is “inhibited dependently on dose”, the “TGF-β (fibrosis indicator)” value was “inhibited dependently on dose”, the “collagen IV” value was “inhibited dependently on dose” and the “nephrin (podocyte injury indicator)” value is on record as “inhibited dependently on dose”. Moreover, in test [2], the “anti-fibrosis effect (collagen IV)” value was “anti-fibrosis”; the “anti-inflammatory effect (Nephrin, MCP-1)” value is on record as “anti-inflammatory effect”; the “antioxidant effect (NOX4)” value was “antioxidant”. Also, in test [3], the “anti-fibrosis effect (collagen IV)” value is on record as “anti-fibrosis”; the “anti-inflammatory effect (Nephrin, MCP-1)” value was “anti-inflammatory effect”; the “antioxidant effect (NOX4)” value was “antioxidant”. Also, the “urinary nephrin (glomerular podocyte damage)” value in test [4] (LC158809 1.5 mg/kg (FIG. 16)) is given as “significantly reduced”. In test [4] (setting [6]), the “fibrosis of the kidney” value is reported as “significantly reduced” and the “inflammation of the kidney” value is on record as “significantly reduced”. Also, the “urinary albumin (proteinuria)” value in test [4] (LC158809 1.5 mg/kg, alone or co-administered (FIG. 15)) is on record as “significantly reduced”. Further, the “urinary 8-isoprostanone (oxidative stress)” value in test [4] (LC158809 1.5 mg/kg, alone or co-administered (FIG. 17)) was “significantly reduced”. For the same molecule, in the test with db/db diabetic mice [5], the “glomerular filtration rate decrease” value is given as “inhibited”, the glomerular hypertrophy entry is given as “inhibited”, the proteinuria entry was “inhibited” and the tubular injury entry is recorded as “inhibited”. Also, in the test on db/db diabetic mice [5], the renal fibrosis entry is recorded as “inhibited to a similar level”, the inflammation response result is recorded as “inhibited to a similar level”, the oxidative stress result was “inhibited to a similar level” and the lipid accumulation result is “inhibited to a similar level”.

On to `CCCCc1nc(Cl)c(CO)n1Cc1ccc(-c2ccccc2-c2nn[nH]n2)cc1` [Losartan, (2-butyl-4-chloro-1-{[2′-(1H-tetrazol-5-yl)biphenyl-4-yl]methyl}-1H-imidazol-5-yl}methanol, reference compound], for which, in the test on db/db diabetic mice [5], the “glomerular filtration rate decrease” value is “similar”, the glomerular hypertrophy entry is on record as “similar”, the proteinuria entry was “similar” and the tubular injury result is given as “similar”. In addition, in the test on db/db diabetic mice [5], the renal fibrosis result is on record as “inhibited to a similar level”, the inflammation response entry is reported as “inhibited to a similar level”, the oxidative stress result is recorded as “inhibited to a similar level” and the lipid accumulation result was “inhibited to a similar level”.
